Reference: patent publication US12612386B2, “Heteroaryl-triazole compounds as pesticides” (Bayer Aktiengesellschaft, priority 2020, dated 2026)

Tests used:
Assay type in all cases: in vivo
[1] = tested on: cattle tick larvae (Rhipicephalus microplus), strain Parkhurst, resistant against synthetic pyrethroids; assay: Rhipicephalus (Boophilus) microplus in-vitro contact test, larval cattle tick; settings: 5 μg/cm^2 (=500 g/ha), after 48 hours
How it was run: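 Compound in acetone coated onto the inner walls of glass tubes (900 ppm giving 5 μg/cm^2), solvent evaporated, then 20–50 larvae added and held at 27 °C, 85% RH. After 48 h, efficacy scored from negative geotactic behaviour as % dead or moribund larvae.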

[2] = tested on: engorged adult female cattle ticks (Rhipicephalus microplus) strain Parkhurst, SP-resistant; assay: Rhipicephalus (Boophilus) microplus dip test; settings: 100 ppm, egg deposition after 7 days
Protocol: Rhipicephalus (Boophilus) Microplus—Dip Test
Test animal: cattle ticks (Rhipicephalus microplus) strain Parkhurst, SP-resistant
(§1) Solvent: dimethyl sulfoxide
To produce a suitable preparation of active compound, 10 mg of active compound are dissolved in 0.5 mL solvent, and the concentrate is diluted with water to the desired concentration.
This compound solution is pipetted into tubes. 8-10 engorged, adult, female cattle ticks (Rhipicephalus microplus) are placed in perforated tubes. These tubes are immersed in the aqueous compound solution until the ticks are completely moistened. After the liquid has drained off, the ticks are transferred to a filter paper in a plastic tray and stored in a climate chamber.
(§2) After 7 days egg deposition of fertile eggs is monitored. Eggs where fertility is not visible are stored in a climate chamber till hatching after about 42 days. An efficacy of 100% means all eggs are infertile; 0% means all eggs are fertile.

[3] = tested on: adult engorged female ticks (Rhipicephalus microplus); assay: Rhipicephalus (Boophilus) microplus injection test; settings: 4 μg/animal, egg deposition after 7 days
Protocol: Rhipicephalus (Boophilus) Microplus—Injection Test
as §1
To produce a suitable preparation of active compound, 10 mg of active compound are dissolved in 0.5 mL solvent, and the concentrate is diluted with solvent to the desired concentration.
Five adult engorged female ticks (Rhipicephalus microplus) are injected with 1 μL compound solution into the abdomen. The ticks are transferred into replica plates and incubated in a climate chamber.
as §2

[4] = tested on: larvae of the banded cucumber beetle (Diabrotica balteata); assay: Diabrotica balteata spray test; settings: 168 h, 100 g/ha (=32 μg/well), after 7 days, read-out: efficacy (seedling growth)
How it was run: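 Germinated wheat seeds on agar (5 per well) were sprayed with compound formulated in acetone/DMF and diluted in water with 1000 ppm emulsifier. Each unit was then infested with 10–20 larvae. Efficacy % was scored after 7 days as seedling growth relative to an untreated, uninfested control (100% = normal growth).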

[5] = tested on: green peach aphid (Myzus persicae); assay: whole plant or invertebrate; settings: 120 h
Protocol: Solvent: 100 parts by weight acetone
To produce a suitable preparation of active compound, 1 part by weight of active compound is mixed with the stated amount of solvent, and the concentrate is diluted with water to the desired concentration.
50 μL compound solution is filled in microtiter plates and 150 μL IPL41 insect medium (33%+15% sugar) is added to obtain a total volume of 200 μL per well. Afterwards the plates are sealed with parafilm through which a mixed population of the green peach aphid (Myzus persicae) can suck on the compound preparation.
After 5 days mortality in % is determined. 100% means all aphids have been killed and 0% means none of the aphids have been killed.
Myzus persicae—Oral Test (MYZUPE Oral)

[6] = tested on: fall armyworm larvae (Spodoptera frugiperda); assay: whole plant or invertebrate; settings: 168 h
How it was run: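 Maize leaf sections sprayed with compound in acetone/DMF with alkylarylpolyglycol ether emulsifier diluted in water, then infested with fall armyworm larvae once dry. Mortality (%) scored after 7 days; 100% = all caterpillars killed.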

[7] = tested on: adult mosquitoes Aedes aegypti strain MONHEIM; assay: Aedes aegypti test (AEDSAE surface treatment & contact assay); settings: 24 hours after contact, read-out: efficacy (mortality)
How it was run: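 Compound in acetone containing 2000 ppm rapeseed oil methyl ester applied to a glazed tile and dried; adult mosquitoes exposed on the treated surface for 30 minutes. Percent mortality scored 24 hours after contact (100% = all dead, 0% = none dead).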

[8] = tested on: adult flies Musca domestica strain WHO-N; assay: Musca domestica test (MUSCDO surface treatment & contact assay); settings: surface concentration 20 mg/m^2, 30 min exposure, 24 hours after contact, read-out: efficacy (mortality)
How it was run: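 Compound in acetone with 2000 ppm rapeseed oil methyl ester dried onto glazed tile; adult WHO-N strain flies exposed to surface 30 minutes. Percent mortality scored 24 hours after contact.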

C[C@H](NC(=O)c1cc(Br)cc(OC(F)(F)F)c1)c1ncnn1-c1cc(C#N)ncn1 [I-1, 3-bromo-N-{(1S)-1-[1-(6-cyanopyrimidin-4-yl)-1H-1,2,4-triazol-5-yl]ethyl}-5-(trifluoromethoxy)benzamide]
efficacy (larvae dead or moribund) [1]: 100% | efficacy (infertile eggs) [2]: 100% | efficacy (infertile eggs) [3]: 100% | pest or weed control at 32 µg/disc, 100 g/ha [4]: 80% | mortality at 0.16 ppm ([5]; MYZUPE oral, 0.16 ppm, 5 dat (Table 3), read-out: % Efficacy): 100% | mortality at 4 ppm ([5]; po): 100% | mortality at 100 g/ha [6]: 100% | Emax at 20 g/ha ([6]; SPODFR, 20 g ai/ha, 7 dat (Table 3), read-out: % Efficacy): 100% | mortality at 4 mg/m2 ([7]; surface concentration 4 mg/m^2, 30 min exposure): 80 to 100% | mortality at 20 mg/m2 ([7]; surface concentration 20 mg/m^2, 30 min exposure): 80 to 100% | mortality at 20 mg/m2 [8]: 80 to 100%
